The source of these data is PubChem BioAssay (NCI).

Some test systems named below: IGROV1 ovarian; RXF 393 renal; NCI-H226 lung; NCI-H23 lung; SK-MEL-28 melanoma; OVCAR-8 ovarian; HCC-2998 colon; HOP-92 NSCLC; UO-31 renal; RPMI-8226 leukemia.
Common to all, as to experiment: NCI anticancer screen, dose series, 48 h

SMILES strings stand for the structures.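 Following 48 hours of exposure in 96-well plates, responses at five concentrations were used to interpolate endpoints linearly. GI50 = concentration required for 50% inhibition of growth. Definition used: TGI = concentration required for complete inhibition of growth.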 Where only a bound is given, the exact number is not on record here.

`CC1(C)CC(=O)C2=C(C1)OC(N)=C(c1nc(-c3ccccc3)cs1)C2c1ccc(Br)cc1` (centres undefined): the GI50 was 90.9 µg/mL in the assay with IGROV1 ovarian; 42.5 µg/mL in the assay with RXF 393 renal; 22.8 µg/mL with NCI-H226 lung; 53.7 µg/mL in the assay with NCI-H23 lung; 93.8 µg/mL in the assay on SK-MEL-28 melanoma; 116 µg/mL in the assay with OVCAR-8 ovarian. For the same compound, the figures for the GI50 in the assay with HCC-2998 colon and in the assay with HOP-92 NSCLC were 44.4 µg/mL and 33.2 µg/mL, respectively. In addition, the TGI in the assay with IGROV1 ovarian is more than 150 µg/mL; with RXF 393 renal it was 126 µg/mL; in the assay with NCI-H226 lung it was 96.8 µg/mL; in the assay on NCI-H23 lung, more than 150 µg/mL; in the assay on SK-MEL-28 melanoma, more than 150 µg/mL; in the assay with OVCAR-8 ovarian, more than 150 µg/mL. Further, the values for the TGI in the assay with HCC-2998 colon and in the assay with HOP-92 NSCLC were more than 150 µg/mL and 126 µg/mL, respectively.
With `O=C1c2sccc2-c2cccc3cccc1c23` (tested in a mixture with another compound), the TGI in the assay on IGROV1 ovarian is 50.2 µM; in the assay on RXF 393 renal it was more than 100 µM; in the assay with NCI-H226 lung, 33.9 µM; with UO-31 renal it was 78.3 µM; in the assay on SK-MEL-28 melanoma, more than 100 µM; in the assay with OVCAR-8 ovarian, 36.4 µM. In the assay with RPMI-8226 leukemia, this compound registered a TGI of 0.668 µM.
As for `COc1ccc(-c2cc(C(=O)Nc3ccc(C)c(C)c3)nc(NC#N)n2)cc1`, the TGI in the assay with IGROV1 ovarian, in the assay on RXF 393 renal, with NCI-H23 lung, with UO-31 renal, in the assay with SK-MEL-28 melanoma and with OVCAR-8 ovarian was more than 100 µM in each case. The compound also yielded a TGI in the assay on RPMI-8226 leukemia of more than 100 µM.
On to `NC(=O)c1csc(C2OC(COP(=O)(O)CP(=O)(O)OCC3OC(n4cnc5c(N)ncnc54)C(O)C3O)C(O)C2O)n1` (centres undefined), for which the TGI with IGROV1 ovarian, in the assay with NCI-H226 lung, in the assay on NCI-H23 lung, with UO-31 renal, in the assay with SK-MEL-28 melanoma and in the assay with OVCAR-8 ovarian was more than 100 µM throughout. In addition, the TGI in the assay with HCC-2998 colon, in the assay with RPMI-8226 leukemia and in the assay on HOP-92 NSCLC was more than 100 µM each time.
Take `N#CC1=C(/N=C/c2ccccc2)Oc2c(ccc3ccccc23)C1c1ccccc1` (centres undefined): the GI50 was 0.725 µM with IGROV1 ovarian; 1.13 µM in the assay with NCI-H226 lung; 0.715 µM in the assay on NCI-H23 lung; 0.452 µM in the assay with UO-31 renal; 0.708 µM in the assay on OVCAR-8 ovarian; 1.2 µM in the assay with HCC-2998 colon. The GI50 in the assay on RPMI-8226 leukemia is 0.441 µM; in the assay with HOP-92 NSCLC it was 0.299 µM. Also, the TGI in the assay with IGROV1 ovarian, in the assay with NCI-H226 lung, in the assay with NCI-H23 lung, in the assay on UO-31 renal, in the assay with SK-MEL-28 melanoma and in the assay on OVCAR-8 ovarian was more than 100 µM each time. Moreover, the TGI in the assay with HCC-2998 colon was more than 67.9 µM; in the assay on RPMI-8226 leukemia, more than 100 µM; in the assay with HOP-92 NSCLC it was more than 23.6 µM.
In the case of `C=C1CCC2[C@@H](CCC3[C@]2(C)CCC[C@]3(C)C(=O)OC)C1CC=O` (some centres undefined), the TGI in the assay with IGROV1 ovarian came to 38.6 µM; with NCI-H226 lung it was 37.2 µM; with NCI-H23 lung, 35.4 µM; with UO-31 renal, 28.9 µM; with SK-MEL-28 melanoma, 30.7 µM; in the assay on OVCAR-8 ovarian it was 37.3 µM. In addition, the TGI in the assay on RPMI-8226 leukemia was 33.4 µM; with HOP-92 NSCLC, 27.8 µM. Also, the results for the GI50 in the assay on UO-31 renal and in the assay on RPMI-8226 leukemia were 14.8 µM and 8.28 µM, respectively.
On to `CC12CCC(=O)N1c1ccc([N+](=O)[O-])cc1N2` (centres undefined), for which the TGI in the assay on IGROV1 ovarian, with RXF 393 renal, with NCI-H226 lung, in the assay with NCI-H23 lung, in the assay with UO-31 renal and in the assay with SK-MEL-28 melanoma was more than 100 µM in each case. In addition, the TGI in the assay on OVCAR-8 ovarian and in the assay on RPMI-8226 leukemia was more than 100 µM throughout.
With `CCCCCO/N=C\c1c2c(O)c3c(O)c(C)c4c(c3c1O)C(=O)C(C)(O/C=C\C(OC)C(C)C(OC(C)=O)C(C)C(O)C(C)C(O)C(C)/C=C\C=C(\C)C(=O)N2)O4` (centres undefined), the GI50 with RXF 393 renal was 1.71 µM; in the assay on NCI-H23 lung, 1.74 µM; in the assay with SK-MEL-28 melanoma, 1.66 µM; with HCC-2998 colon it was 1.65 µM; in the assay on RPMI-8226 leukemia it was 2.34 µM. Besides, the TGI with RXF 393 renal was determined as 3.1 µM; with NCI-H23 lung, 3.44 µM; in the assay with SK-MEL-28 melanoma it was 3.02 µM; in the assay with HCC-2998 colon it was 3.08 µM; in the assay on RPMI-8226 leukemia, 6.69 µM.
Regarding `Cc1ccc(-c2nc([P+](c3ccccc3)(c3ccccc3)c3ccccc3)c(S(=O)(=O)c3ccc(C)cc3)o2)cc1`, the GI50 was 1.61 µM in the assay with IGROV1 ovarian; 1.4 µM in the assay on RXF 393 renal; 5.05 µM in the assay with NCI-H226 lung; 1.68 µM with NCI-H23 lung; 1.32 µM in the assay with UO-31 renal; 1.7 µM in the assay on SK-MEL-28 melanoma. Moreover, the figures for the GI50 in the assay with OVCAR-8 ovarian, with HCC-2998 colon and with HOP-92 NSCLC were 1.32 µM, 1.45 µM and 1.43 µM, respectively. Moreover, the TGI with IGROV1 ovarian amounted to 3.15 µM; with RXF 393 renal it was 2.79 µM; with NCI-H226 lung, 24.6 µM; in the assay on NCI-H23 lung it was 3.5 µM; in the assay on UO-31 renal, 2.6 µM; in the assay with SK-MEL-28 melanoma, 3.09 µM. In addition, the TGI in the assay on OVCAR-8 ovarian amounted to 4.17 µM; with HCC-2998 colon, 3.01 µM; with HOP-92 NSCLC, 3.13 µM.
Regarding `O=C(O)CCC(=O)c1ccc2sc3ccccc3c2c1`, the TGI in the assay with IGROV1 ovarian, in the assay on RXF 393 renal, in the assay on NCI-H226 lung, in the assay with NCI-H23 lung, in the assay with UO-31 renal and in the assay on SK-MEL-28 melanoma was more than 100 µM throughout. Also, the TGI in the assay with OVCAR-8 ovarian and in the assay on RPMI-8226 leukemia was more than 100 µM throughout.
With `CCOC(=O)/C(C#N)=C(O)/C(=C\c1ccc(Br)cc1)NC(=O)c1ccccc1`, the TGI in the assay on IGROV1 ovarian, in the assay with NCI-H226 lung, in the assay on NCI-H23 lung, in the assay with UO-31 renal, in the assay on SK-MEL-28 melanoma and in the assay with OVCAR-8 ovarian was more than 100 µM each time. In addition, the TGI in the assay on HCC-2998 colon was more than 100 µM; in the assay with RPMI-8226 leukemia, 59.6 µM; with HOP-92 NSCLC it was more than 100 µM.
Turning to `OC(C#Cc1ccccc1)(c1ccccc1)c1ccccc1`, the TGI was more than 100 µM in the assay on IGROV1 ovarian; 87.3 µM in the assay on NCI-H226 lung; more than 100 µM in the assay on NCI-H23 lung; more than 100 µM in the assay on UO-31 renal; more than 100 µM in the assay on SK-MEL-28 melanoma; more than 100 µM with OVCAR-8 ovarian. For the same compound, the TGI in the assay on HCC-2998 colon was more than 100 µM; in the assay with RPMI-8226 leukemia, 47.4 µM.
Consider `O=S(=O)(c1cccc(N=C=S)c1)c1cccc(N=C=S)c1`, for which the TGI was 34.7 µM in the assay with IGROV1 ovarian; 30 µM in the assay on RXF 393 renal; 32.9 µM in the assay on NCI-H23 lung; 75.1 µM in the assay on UO-31 renal; 33.6 µM with SK-MEL-28 melanoma; 46.7 µM in the assay with HCC-2998 colon. Also, in the assay with RPMI-8226 leukemia, the TGI is 83.9 µM.
